Structures are written as SMILES.

Format in all cases: in vivo
Assay [1] concerns Musca domestica (houseflies - adults). As to the kind of experiment: Contact test on houseflies - adults (MD), Cotton wool/sugar, mortality. The note with it: 72 h, contact, 3 days, read-out: MD grading of mortality. In a few lines:
(§1)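 Compound dissolved in acetone, diluted with water containing 0.01% by weight wetting agent to 500, 250 or 100 ppm. Pests held on host plant or foodstuff; pests and/or medium treated. Mortality scored one to three days later as grade A (80-100%), B (50-79%) or C (<50%) mortality or knockdown.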

Assay [2] shares this test system. As to the kind of experiment: Knockdown test on houseflies - adults (MD/KD), Cotton wool/sugar. The note with it: 4 hours, read-out: MD/KD grading of knockdown. In a few lines:
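Adult houseflies exposed to the compound at 500, 250 or 100 ppm in acetone/water with 0.01% wetting agent, on a cotton wool/sugar medium. Knockdown and mortality assessed, graded A (80-100%), B (50-79%) or C (<50%).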

Assay [3] has as its system Nephotettix cincticeps (green leaf hopper - nymphs). As to the kind of experiment: Contact test on green leaf hopper nymphs (NC), Rice plant, mortality. To be noted: 48 h, contact, 2 days, read-out: NC grading of mortality. In a few lines: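 Product dissolved in acetone, diluted in water with 0.01% wetting agent to 500, 250 or 100 ppm; nymphs and/or host rice plants treated. Mortality or knockdown assessed 1–3 days later, graded A (80-100%), B (50-79%), C (<50%).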

Assay [4] deals with Tetranychus urticae (spider mites - ova). As to the kind of experiment: Contact test on spider mites - ova (TUe), French bean leaf, mortality. The note with it: 144 h, contact, 6 days, read-out: TUe grading of mortality. In a few lines: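 Graded read-out: A 80-100%, B 50-79%, C below 50% mortality or knockdown, assessed usually 1-3 days post-treatment. Liquid preparations at 500, 250 or 100 ppm by weight, from acetone solution diluted in water with 0.01% wetting agent, applied to pests and/or their host plant or food medium.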

For assay [5], the system named is Spodoptera exigua (lesser army worm - larvae). Nature of the assay: Residual test on lesser army worm larvae (SP), Cotton leaf, mortality. To be noted: 48 h, residual, 2 days, read-out: SP grading of mortality. In outline:
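Product dissolved in acetone and diluted in water with 0.01% wetting agent to 500, 250 or 100 ppm; larvae and/or cotton leaf host treated. Mortality or knockdown scored one to three days later and graded A (80-100%), B (50-79%) or C (<50%).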

Assay [6] has as its system Diabrotica balteata (rootworm larvae). As to the kind of experiment: Residual test on rootworm larvae (DB), Filter paper/maize seed, mortality. To be noted: 48 h, residual, 2 days, read-out: DB grading of mortality. In a few lines:
as §1

Assay [7] deals with Heliothis virescens (tobacco budworm - larvae). As to the kind of experiment: Residual test on tobacco budworm larvae (HV), Cotton leaf, mortality. The note with it: 48 h, read-out: HV grading of mortality. In a few lines: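 Product in acetone diluted with water containing 0.01% Lissapol NX, at 500, 250 or 100 ppm; pests and/or host medium (here cotton leaf) treated. Mortality scored one to three days later, graded A (80-100%), B (50-79%), C (<50%).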

Assay [8] deals with Tetranychus urticae (spider mites - adult). Nature of the assay: Contact test on spider mites - adult (TUa), French bean leaf, mortality. The note with it: 72 h, contact, 3 days, read-out: TUa grading of mortality. In outline:
as §1

In assay [9] the test system is Blattella germanica (cockroach nymphs). Nature of the assay: Contact test on cockroach nymphs (BG/C), Plastic pot, mortality. To be noted: 48 h, contact, 2 days, read-out: BG/C grading of mortality. In outline: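 Cockroach nymphs and/or their medium were treated with aqueous preparations at 500, 250 or 100 ppm (acetone solution diluted in water with 0.01% Lissapol NX wetting agent). Mortality or knockdown was assessed typically 1–3 days later and graded A (80–100%), B (50–79%) or C (<50%).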

The next assay concerns Myzus persicae (aphids). As to the kind of experiment: Contact test on aphids (MP), Chinese Cabbage leaf, mortality. To be noted: 72 h, contact, 3 days, read-out: MP grading of mortality. In a few lines: as §1

In the case of `CC(C)(C)OC(=O)COCc1c(F)c(F)c(COC(=O)C(c2cnc(C(C)(C)C)nc2)C(C)(C)C)c(F)c1F` (racemic) [Compound 165, 4-[(1,1-dimethylethyl)oxycarbonylmethoxymethyl]-2,3,5,6-tetrafluorobenzyl (RS)-2-[2-(1,1-dimethylethyl]pyrimidin-5-yl]-3,3-dimethylbutanoate], the mortality at 500 ppm was < 50% in assay [1]; 50 to 79% in [3]; < 50% in assay [4]; < 50% in [5]; < 50% in [6]; < 50% in assay [7]. Besides, the mortality at 500 ppm (in [8]; in assay [9]; in the assay with Myzus persicae (aphids)) was < 50% each time. In addition, the pest or weed control at 500 ppm in [2] is < 50%.
As to `CC(C)(C)c1ncc(C(C(=O)SCc2c(F)c(F)c(CO)c(F)c2F)C(C)(C)C)cn1` (racemic) [Compound 196], the mortality at 500 ppm is < 50% in [1]; < 50% in assay [3]; < 50% in assay [4]; 80 to 100% in assay [5]; < 50% in assay [6]; < 50% in assay [7]. Besides, the mortality at 500 ppm (in assay [8]; in assay [9]; in the assay with Myzus persicae (aphids)) was < 50% in each case. In addition, the pest or weed control at 500 ppm in assay [2] was < 50%.
For `COCc1c(F)c(F)c(COC(=O)C(c2cnc(C(F)(F)F)nc2)C(C)(C)C)c(F)c1F` (racemic) [Compound 41, 2,3,5,6-tetrafluoro-4-(methoxymethyl)benzyl (RS)-2-[2-(trifluoromethyl)pyrimidin-5-yl]-3,3-dimethylbutanoate], the mortality at 500 ppm is 80 to 100% in assay [1]; 80 to 100% in [3]; < 50% in assay [4]; 80 to 100% in assay [5]; < 50% in [6]; 80 to 100% in [7]. For the same compound, the mortality at 500 ppm (in assay [8]; in [9]; with Myzus persicae (aphids)) was 80 to 100% in each case. Further, the pest or weed control at 500 ppm in [2] fell in the range of 80 to 100%.
On to `C=CC(C)(C)C(C(=O)OCc1c(F)c(F)c(COC)c(F)c1F)c1cnc(C(C)(C)C)nc1` (racemic) [Compound 211, 4-(methoxymethyl)-2,3,5,6-tetrafluorobenzyl (RS)-2-[2-(1,1-dimethylethyl)pyrimidin-5-yl]-3,3-dimethylpent-4-enoate], for which the mortality at 500 ppm in [1] was < 50%; in assay [3], 80 to 100%; in assay [4], 80 to 100%; in [5], 80 to 100%; in [6], < 50%; in [7] it was < 50%. For the same compound, the mortality at 500 ppm was 80 to 100% in [8], < 50% in assay [9] and 80 to 100% in the assay on Myzus persicae (aphids). Besides, the pest or weed control at 500 ppm in [2] was 80 to 100%.
For `CC(C)(C)c1ncc(C(C(=O)OCc2c(F)c(F)c(COc3ccccc3)c(F)c2F)C(C)(C)C)cn1` (racemic) [Compound 192, 2,3,5,6-tetrafluoro-4-(phenoxymethyl)benzyl (RS)-2-[2-(1,1-dimethylethyl)pyrimidin-5-yl]-3,3-dimethylbutanoate], the mortality at 500 ppm in assay [1] was < 50%; in [3], < 50%; in [4] it was < 50%; in [5], 80 to 100%; in assay [6], < 50%; in [7] it was < 50%. The mortality at 500 ppm in assay [8] was 80 to 100%; in assay [9], < 50%; in the assay with Myzus persicae (aphids) it was 50 to 79%. Besides, the pest or weed control at 500 ppm in [2] is < 50%.
Take `Cc1ncc(C(C(=O)OCc2ccc(F)c(Oc3ccccc3)c2)C(C)(C)C)cn1` (racemic) [Compound 206, 4-fluoro-3-phenoxybenzyl (RS)-2-(2-methylpyrimidin-5-yl)-3,3,-dimethylbutanoate]: the mortality at 500 ppm in assay [1] is 80 to 100%; in assay [3], 80 to 100%; in [4], < 50%; in assay [5], 80 to 100%; in assay [6] it was 80 to 100%; in [7], 80 to 100%. For the same compound, the results for the mortality at 500 ppm (in [8]; in assay [9]; in the assay with Myzus persicae (aphids)) were 80 to 100%, 50 to 79% and 80 to 100%, respectively. Moreover, in assay [2], the pest or weed control at 500 ppm is 80 to 100%.
As to `CC(OC(=O)C(c1cnc(-c2ccccc2)nc1)C(C)(C)C)c1cccc(Oc2ccccc2)n1` (racemic) [Compound 82, (RS)-1-(6-phenoxpyrid-2-yl)ethyl (RS)-2-(2-phenylpyrimidin-5-yl)-3,3-dimethylbutanoate], the mortality at 1000 ppm in assay [1] (1000 ppm) is < 50%; in assay [3] (1000 ppm), 80 to 100%; in assay [4] (1000 ppm) it was < 50%; in [5] (1000 ppm), 80 to 100%; in assay [6] (1000 ppm), < 50%; in [7], 80 to 100%. In addition, the mortality at 1000 ppm in [8] (1000 ppm) was 80 to 100%; in [9] (1000 ppm) it was < 50%; in the assay with Myzus persicae (aphids) (1000 ppm), 80 to 100%. Besides, in assay [2] (1000 ppm), the pest or weed control at 1000 ppm fell in the range of 80 to 100%.
With `C[C@@H](OC(=O)[C@@H](c1cnc(C(C)(C)C)nc1)C(C)(C)C)c1cccc(Oc2ccc(Cl)cc2)n1` (racemic) [Compound 181, (RS)-1-[6-(4-chlorophenoxy)pyrid-2-yl]ethyl (RS)-2-[2-(1,1-dimethylethyl)pyrimidin-5-yl]-3,3-dimethylbutanoate], the mortality at 500 ppm is 80 to 100% in [1]; 80 to 100% in assay [3]; < 50% in [4]; 80 to 100% in assay [5]; 80 to 100% in [6]; 80 to 100% in assay [7]. Moreover, the mortality at 500 ppm in assay [8] was 80 to 100%; in assay [9], < 50%; with Myzus persicae (aphids), 80 to 100%. The pest or weed control at 500 ppm in assay [2] is 80 to 100%.
For the compound `CC(C)(C)c1ncc(C(C(=O)OCc2c(F)c(F)c(CO)c(F)c2F)C(C)(C)C)cn1` (racemic) [Compound 164, 4-(hydroxymethyl)-2,3,5,6-tetrafluorobenzyl (RS)-2-[2-(1,1-dimethylethyl)pyrimidin-5-yl]-3,3-dimethylbutanoate], the mortality at 500 ppm in [1] was < 50%; in assay [3], < 50%; in assay [4], < 50%; in assay [5], 80 to 100%; in assay [6], < 50%; in assay [7], 50 to 79%. The mortality at 500 ppm was 80 to 100% in assay [8], < 50% in assay [9] and 50 to 79% in the assay with Myzus persicae (aphids). For the same compound, the pest or weed control at 500 ppm in assay [2] lay in the range of 80 to 100%.
As to `COCc1c(F)c(F)c(COC(=O)C(c2cnc(N(C)C)nc2)C(C)(C)C)c(F)c1F` (racemic) [Compound 199], the mortality at 500 ppm was 80 to 100% in [1]; 80 to 100% in [3]; 80 to 100% in assay [4]; 80 to 100% in assay [5]; 50 to 79% in assay [6]; 80 to 100% in assay [7]. Moreover, the mortality at 500 ppm (in [8]; in assay [9]; in the assay with Myzus persicae (aphids)) was 80 to 100% throughout. In addition, in [2], the pest or weed control at 500 ppm was 80 to 100%.

These data come from US4962109A, “Insecticidally and acaricidally active pyrimidine esters and intermediates therefor” (Imperial Chemical Industries PLC, priority 1985, dated 1990).
